Measured values taken from patent publication US10499642B2, “Isoxazoline-substituted benzamides and analogues as insecticides” (SYNGENTA PARTICIPATIONS AG, priority 2015, dated 2019).
Read-outs that look alike come from different tables or passages of the source.

What was measured:
Format in all cases: in vivo
Diabrotica Balteata = assay: Diabrotica balteata (corn root worm) maize sprout test; conditions: 96 h, read-out: effect in at least one of the two categories (mortality or growth inhibition)
Method in brief: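 Scoring covered both mortality and growth inhibition relative to untreated controls, 4 days post-infestation. Test solutions at 200 ppm, diluted in water from 10′000 ppm DMSO stocks, were sprayed onto agar-held maize sprouts, which after drying received 6 to 10 L2 larvae each well.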

Thrips tabaci = Thrips tabaci (onion thrips) sunflower leaf disc test; conditions: foliar, 144 h
Description: Thrips tabaci (Onion Thrips):
(§1) Sunflower leaf discs were placed on agar in 24-well microtiter plates and sprayed with aqueous test solutions prepared from 10′000 ppm DMSO stock solutions. After drying the leaf discs were infested with a thrips population of mixed ages. The samples were assessed for mortality 6 days after infestation.

Tetranychus urticae = Tetranychus urticae (two-spotted spider mite) bean leaf disc test; conditions: foliar, 192 h
Description: Tetranychus urticae (Two-Spotted Spider Mite):
as §1, with “Bean” for “Sunflower”, “discs” for “discs were placed”, “were” for “and”, “mite” for “thrips”, “on mixed population (mobile stages) 8” for “6”

Spodoptera littoralis = Spodoptera littoralis (Egyptian cotton leaf worm) cotton leaf disc test; conditions: foliar, 72 h, read-out: control (at least one of mortality, anti-feedant effect, and growth inhibition)
Method in brief: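 Five first-instar larvae per disc were placed on dried, sprayed cotton leaf discs held on agar. Test solutions were aqueous, made from 10′000 ppm DMSO stocks. At day 3, control was counted when mortality, feeding deterrence or growth inhibition exceeded the untreated discs.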

Plutella xylostella = Plutella xylostella (diamond back moth) artificial diet test; conditions: 120 h, read-out: effect in at least one of the two categories (mortality or growth inhibition)
Method in brief: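 At a 200 ppm rate, test solutions were applied to artificial diet and allowed to dry before second-instar larvae were added. Five days later, larval mortality and growth inhibition were rated against untreated samples.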

Myzus persicae = Myzus persicae (green peach aphid) sunflower leaf disc test; conditions: foliar, 144 h
Description: Myzus persicae (Green Peach Aphid):
Sunflower leaf discs were placed on agar in a 24-well microtiter plate and sprayed with test solutions at an application rate of 200 ppm. After drying, the leaf discs were infested with an aphid population of mixed ages. After an incubation period of 6 days after treatment, samples were checked for mortality. The following compounds gave at least 80% mortality of Myzus persicae: […]

Cc1cc(C2=NO[C@@](c3cc(Cl)c(F)c(Cl)c3)(C(F)(F)F)C2)ccc1C(=O)NC1CC(C2CC2)=NO1 (stereo partly drawn) [Compound A032, N-(3-cyclopropyl-4,5-dihydroisoxazol-5-yl)-4-[(5S)-5-(3,5-dichloro-4-fluoro-phenyl)-5-(trifluoromethyl)-4H-isoxazol-3-yl]-2-methyl-benzamide]
≥ 80%: percent effect (mortality or growth inhibition) at 200 ppm (Diabrotica Balteata) | mortality at 200 ppm (Thrips tabaci) | mortality at 200 ppm (Tetranychus urticae) | percent control (mortality, anti-feedant effect or growth inhibition) at 200 ppm (Spodoptera littoralis) | percent effect (mortality or growth inhibition) at 200 ppm (Plutella xylostella) | mortality at 200 ppm (Myzus persicae)

C=CCOC1=NOC(NC(=O)c2ccc(C3=NO[C@@](c4cc(Cl)c(F)c(Cl)c4)(C(F)(F)F)C3)cc2C)C1 (stereo partly drawn) [Compound A072]
≥ 80%: percent effect (mortality or growth inhibition) at 200 ppm (Diabrotica Balteata) | mortality at 200 ppm (Thrips tabaci) | mortality at 200 ppm (Tetranychus urticae) | percent control (mortality, anti-feedant effect or growth inhibition) at 200 ppm (Spodoptera littoralis) | percent effect (mortality or growth inhibition) at 200 ppm (Plutella xylostella) | mortality at 200 ppm (Myzus persicae)

CC1=NOC(NC(=O)c2ccc(C3=NO[C@@](c4cc(Cl)c(F)c(Cl)c4)(C(F)(F)F)C3)cc2Cl)C1 (stereo partly drawn) [Compound A038, 2-chloro-4-[(5S)-5-(3,5-dichloro-4-fluoro-phenyl)-5-(trifluoromethyl)-4H-isoxazol-3-yl]-N-(3-methyl-4,5-dihydroisoxazol-5-yl)benzamide]
≥ 80%: percent effect (mortality or growth inhibition) at 200 ppm (Diabrotica Balteata) | mortality at 200 ppm (Thrips tabaci) | mortality at 200 ppm (Tetranychus urticae) | percent control (mortality, anti-feedant effect or growth inhibition) at 200 ppm (Spodoptera littoralis) | percent effect (mortality or growth inhibition) at 200 ppm (Plutella xylostella) | mortality at 200 ppm (Myzus persicae)

CCOC1=NOC(NC(=O)c2ccc(C3=NO[C@@](c4cc(Cl)cc(C(F)(F)F)c4)(C(F)(F)F)C3)cc2Cl)C1 (stereo partly drawn) [Compound A066]
≥ 80%: percent effect (mortality or growth inhibition) at 200 ppm (Diabrotica Balteata) | mortality at 200 ppm (Thrips tabaci) | mortality at 200 ppm (Tetranychus urticae) | percent control (mortality, anti-feedant effect or growth inhibition) at 200 ppm (Spodoptera littoralis) | percent effect (mortality or growth inhibition) at 200 ppm (Plutella xylostella) | mortality at 200 ppm (Myzus persicae)

Cc1cc(C2=NO[C@@](c3cc(Cl)cc(Cl)c3)(C(F)(F)F)C2)ccc1C(=O)NC1CC(C(F)(F)F)=NO1 (stereo partly drawn) [Compound A136, 4-[(5S)-5-(3,5-dichlorophenyl)-5-(trifluoromethyl)-4H-isoxazol-3-yl]-2-methyl-N-[3-(trifluoromethyl)-4,5-dihydroisoxazol-5-yl]benzamide]
≥ 80%: percent effect (mortality or growth inhibition) at 200 ppm (Diabrotica Balteata) | mortality at 200 ppm (Thrips tabaci) | mortality at 200 ppm (Tetranychus urticae) | percent control (mortality, anti-feedant effect or growth inhibition) at 200 ppm (Spodoptera littoralis) | percent effect (mortality or growth inhibition) at 200 ppm (Plutella xylostella) | mortality at 200 ppm (Myzus persicae)

CC1=NOC(N(C=O)C(=O)c2ccc(C3=NO[C@@](c4cc(Br)cc(C(F)(F)F)c4)(C(F)(F)F)C3)cc2C)C1 (stereo partly drawn) [Compound A040, 4-[(5S)-5-[3-bromo-5-(trifluoromethyl)phenyl]-5-(trifluoromethyl)-4H-isoxazol-3-yl]-N-formyl-2-methyl-N-(3-methyl-4,5-dihydroisoxazol-5-yl)benzamide]
≥ 80%: percent effect (mortality or growth inhibition) at 200 ppm (Diabrotica Balteata; application rate 200 ppm, maize sprouts, L2 larvae, 4 days after infestation) | mortality at 200 ppm (Thrips tabaci; application rate 200 ppm, sunflower leaf discs, population of mixed ages, 6 days after infestation, read-out: mortality) | mortality at 200 ppm (Tetranychus urticae; application rate 200 ppm, bean leaf discs, mixed population (mobile stages), 8 days after infestation, read-out: mortality) | percent control (mortality, anti-feedant effect or growth inhibition) at 200 ppm (Spodoptera littoralis; application rate 200 ppm, cotton leaf discs, L1 larvae, 3 days after infestation) | percent effect (mortality or growth inhibition) at 200 ppm (Plutella xylostella; application rate 200 ppm, artificial diet, L2 larvae, 5 days after infestation) | mortality at 200 ppm (Myzus persicae; application rate 200 ppm, sunflower leaf discs, population of mixed ages, 6 days after treatment, read-out: mortality)

CC(=O)COC1=NOC(NC(=O)c2ccc(C3=NO[C@@](c4cc(Cl)c(Cl)c(Cl)c4)(C(F)(F)F)C3)cc2C)C1 (stereo partly drawn) [Compound A121, N-(3-acetonyloxy-4,5-dihydroisoxazol-5-yl)-2-methyl-4-[(5S)-5-(3,4,5-trichlorophenyl)-5-(trifluoromethyl)-4H-isoxazol-3-yl]benzamide]
≥ 80%: percent effect (mortality or growth inhibition) at 200 ppm (Diabrotica Balteata) | mortality at 200 ppm (Thrips tabaci) | mortality at 200 ppm (Tetranychus urticae) | percent control (mortality, anti-feedant effect or growth inhibition) at 200 ppm (Spodoptera littoralis) | percent effect (mortality or growth inhibition) at 200 ppm (Plutella xylostella) | mortality at 200 ppm (Myzus persicae)

CO/N=C/C1=NOC(NC(=O)c2ccc(C3=NO[C@@](c4cc(Cl)c(F)c(Cl)c4)(C(F)(F)F)C3)cc2C)C1 (stereo partly drawn) [Compound A119, 4-[(5S)-5-(3,5-dichloro-4-fluoro-phenyl)-5-(trifluoromethyl)-4H-isoxazol-3-yl]-N-[3-[(E)-methoxyiminomethyl]-4,5-dihydroisoxazol-5-yl]-2-methyl-benzamide]
≥ 80%: percent effect (mortality or growth inhibition) at 200 ppm (Diabrotica Balteata) | mortality at 200 ppm (Thrips tabaci) | mortality at 200 ppm (Tetranychus urticae) | percent control (mortality, anti-feedant effect or growth inhibition) at 200 ppm (Spodoptera littoralis) | percent effect (mortality or growth inhibition) at 200 ppm (Plutella xylostella) | mortality at 200 ppm (Myzus persicae)

Cc1cc(C2=NO[C@@](c3cc(Cl)c(F)c(Cl)c3)(C(F)(F)F)C2)ccc1C(=O)NC1CC(CO)=NO1 (stereo partly drawn) [Compound A087, 4-[(5S)-5-(3,5-dichloro-4-fluoro-phenyl)-5-(trifluoromethyl)-4H-isoxazol-3-yl]-N-[3-(hydroxymethyl)-4,5-dihydroisoxazol-5-yl]-2-methyl-benzamide]
≥ 80%: percent effect (mortality or growth inhibition) at 200 ppm (Diabrotica Balteata) | mortality at 200 ppm (Thrips tabaci) | mortality at 200 ppm (Tetranychus urticae) | percent control (mortality, anti-feedant effect or growth inhibition) at 200 ppm (Spodoptera littoralis) | percent effect (mortality or growth inhibition) at 200 ppm (Plutella xylostella) | mortality at 200 ppm (Myzus persicae)

Cc1cc(C2=NO[C@@](c3cc(Cl)cc(C(F)(F)F)c3)(C(F)(F)F)C2)ccc1C(=O)NC1CC(Cl)=NO1 (stereo partly drawn) [Compound A016, N-(3-chloro-4,5-dihydroisoxazol-5-yl)-4-[(5S)-5-[3-chloro-5-(trifluoromethyl)phenyl]-5-(trifluoromethyl)-4H-isoxazol-3-yl]-2-methyl-benzamide]
≥ 80%: percent effect (mortality or growth inhibition) at 200 ppm (Diabrotica Balteata) | mortality at 200 ppm (Thrips tabaci) | mortality at 200 ppm (Tetranychus urticae) | percent control (mortality, anti-feedant effect or growth inhibition) at 200 ppm (Spodoptera littoralis) | percent effect (mortality or growth inhibition) at 200 ppm (Plutella xylostella) | mortality at 200 ppm (Myzus persicae)

C#CCOC1=NOC(NC(=O)c2ccc(C3=NO[C@@](c4cc(Cl)c(F)c(Cl)c4)(C(F)(F)F)C3)cc2C)C1 (stereo partly drawn) [Compound A074]
≥ 80%: percent effect (mortality or growth inhibition) at 200 ppm (Diabrotica Balteata) | mortality at 200 ppm (Thrips tabaci) | mortality at 200 ppm (Tetranychus urticae) | percent control (mortality, anti-feedant effect or growth inhibition) at 200 ppm (Spodoptera littoralis) | percent effect (mortality or growth inhibition) at 200 ppm (Plutella xylostella) | mortality at 200 ppm (Myzus persicae)

O=C(NC1CC(Cl)=NO1)c1ccc(C2=NO[C@@](c3cc(Cl)c(Cl)c(Cl)c3)(C(F)(F)F)C2)cc1Cl (stereo partly drawn) [Compound A018, 2-chloro-N-(3-chloro-4,5-dihydroisoxazol-5-yl)-4-[(5S)-5-(3,4,5-trichlorophenyl)-5-(trifluoromethyl)-4H-isoxazol-3-yl]benzamide]
≥ 80%: percent effect (mortality or growth inhibition) at 200 ppm (Diabrotica Balteata) | mortality at 200 ppm (Thrips tabaci) | mortality at 200 ppm (Tetranychus urticae) | percent control (mortality, anti-feedant effect or growth inhibition) at 200 ppm (Spodoptera littoralis) | percent effect (mortality or growth inhibition) at 200 ppm (Plutella xylostella) | mortality at 200 ppm (Myzus persicae)

Cc1cc(C2=NO[C@@](c3cc(Cl)cc(Cl)c3)(C(F)(F)F)C2)ccc1C(=O)NC1CC(OCC(F)F)=NO1 (stereo partly drawn) [Compound A128]
≥ 80%: percent effect (mortality or growth inhibition) at 200 ppm (Diabrotica Balteata) | mortality at 200 ppm (Thrips tabaci) | mortality at 200 ppm (Tetranychus urticae) | percent control (mortality, anti-feedant effect or growth inhibition) at 200 ppm (Spodoptera littoralis) | percent effect (mortality or growth inhibition) at 200 ppm (Plutella xylostella) | mortality at 200 ppm (Myzus persicae)

Cc1cc(C2=NO[C@@](c3cc(Cl)cc(C(F)(F)F)c3)(C(F)(F)F)C2)ccc1C(=O)N(C=O)C1CC(Cl)=NO1 (stereo partly drawn) [Compound A012, N-(3-chloro-4,5-dihydroisoxazol-5-yl)-4-[(5S)-5-[3-chloro-5-(trifluoromethyl)phenyl]-5-(trifluoromethyl)-4H-isoxazol-3-yl]-N-formyl-2-methyl-benzamide]
≥ 80%: percent effect (mortality or growth inhibition) at 200 ppm (Diabrotica Balteata) | mortality at 200 ppm (Thrips tabaci) | mortality at 200 ppm (Tetranychus urticae) | percent control (mortality, anti-feedant effect or growth inhibition) at 200 ppm (Spodoptera littoralis) | percent effect (mortality or growth inhibition) at 200 ppm (Plutella xylostella) | mortality at 200 ppm (Myzus persicae)

CCNC(=O)COC1=NOC(NC(=O)c2ccc(C3=NO[C@@](c4cc(Cl)c(Cl)c(Cl)c4)(C(F)(F)F)C3)cc2C)C1 (stereo partly drawn) [Compound A115, N-[3-[2-(ethylamino)-2-oxo-ethoxy]-4,5-dihydroisoxazol-5-yl]-2-methyl-4-[(5S)-5-(3,4,5-trichlorophenyl)-5-(trifluoromethyl)-4H-isoxazol-3-yl]benzamide]
≥ 80%: percent effect (mortality or growth inhibition) at 200 ppm (Diabrotica Balteata) | mortality at 200 ppm (Thrips tabaci) | mortality at 200 ppm (Tetranychus urticae) | percent control (mortality, anti-feedant effect or growth inhibition) at 200 ppm (Spodoptera littoralis) | percent effect (mortality or growth inhibition) at 200 ppm (Plutella xylostella) | mortality at 200 ppm (Myzus persicae)
